# Experimental data reported in patent publication US10966995B2, “Use of secoisolariciresinol diglucosides (SDGS) and related compounds for protection against radiation and chemical damage” (THE TRUSTEES OF THE UNIVERSITY OF PENNSYLVANIA, priority 2014, dated 2021).
# Key:
# [1] = system: murine primary lung endothelial cells; experiment: Morphological detection of apoptotic cells, endothelial cells; format: cell-based, mouse; conditions: SDG 50 μM pre-treatment; irradiated; 24 h; IR alone 15.1%
# Experimental: Fibroblasts and endothelial cells were isolated from C57/bl6 mouse. For fibroblast isolation, mouse lungs were harvested, minced, and incubated with dispase (2 mg/ml) for 45 minutes. Pieces were plated out and fibroblasts were cultured as described previously and used between passages 3 and 10. Pulmonary microvascular endothelial cells (PMVEC) were isolated from murine lungs as described previously. Briefly, freshly harvested mouse lungs were treated with collagenase followed by isolation of cells by adherence to magnetic beads coated with mAb to platelet endothelial cell adhesion molecule (PECAM). […]
# Apoptotic cells are morphologically characterized by condensation of nucleus and cytoplasm, membrane blebbing, cell shrinkage, and breakdown of nuclear DNA, first in large segments and subsequently in nucleosomal fragments and finally formation of well-enclosed apoptotic bodies. Percentage of cells undergoing apoptosis was determined microscopically from the slides used for micronuclei detection (cytogenetic damage). At least, 500 cells were counted for each experiment (experiment done twice) and percent apoptotic cells were determined as follows: % Cell Death=Na/Nt×100, where Na is the number of cells with apoptotic bodies and Nt is the total number of cells analyzed. Gene Expression Analysis by Quantitative Real Time PCR (qPCR)
# [2] = system: murine primary lung endothelial cells; experiment: γ-H2AX foci immunostaining, endothelial cells; format: cell-based, mouse; conditions: SDG 50 μM 6 h prior IR; 2 Gy; irradiated control 33.6% at 30 min
# Experimental: (§1) Fibroblasts and endothelial cells were isolated from C57/bl6 mouse. For fibroblast isolation, mouse lungs were harvested, minced, and incubated with dispase (2 mg/ml) for 45 minutes. Pieces were plated out and fibroblasts were cultured as described previously and used between passages 3 and 10. Pulmonary microvascular endothelial cells (PMVEC) were isolated from murine lungs as described previously. Briefly, freshly harvested mouse lungs were treated with collagenase followed by isolation of cells by adherence to magnetic beads coated with mAb to platelet endothelial cell adhesion molecule (PECAM). Epithelial cells (C10) cells were originally derived from a normal BALB/c mouse lung explant and are non-tumorigenic, contact-inhibited, and have alveolar type 2 cell features at early passage.
# For immunostaining of γ-H2AX, cells were plated on glass coverslips (5,000 cells/coverslip), pre-treated (6 h) with 50 μM SDG and irradiated (2 Gy). At desired time interval, cells were fixed (4% para-formaldehyde), washed and blocked with PBST (PBS+0.1% TritonX-100 containing 5% goat serum, 1% BSA). Cells were incubated with γ-H2AX primary antibody (1:200) overnight at 4° C. followed by washing with PBST (3×5 min) and incubation with secondary antibody (Alexa Fluor® 488, Invitrogen, Calif., USA) for 1 hr at RT. Nuclei were counterstained with DAPI and visualized under fluorescence microscope.
# [3] = system: murine primary lung cells (epithelial, endothelial and WT fibroblasts); experiment: Alkaline comet assay (DNA SSBs) in irradiated primary lung cells; format: cell-based, mouse; conditions: 2 Gy
# Experimental: as §1
# Exponentially growing cells were cultured and treated with SDG (50 μM) at different time intervals prior to irradiation (2 Gy). Cells were processed for comet assay as per manufacturer's instructions (Trevigen, Gaithersburg, Md.). […] At least 150 cells were scored per group. Visual analysis of cells and comet tail length was measured using Comet Image Analysis software (Comet Assay IV, Perceptive Instruments Ltd, Haverhill, UK) Images were captured on an Olympus IX51 fluorescence microscope using a monochrome CCD FireWire camera.
# [4] = SDG pharmacokinetic study after oral gavage (plasma and lung); format: in vivo, mouse
# Experimental: After selecting the 100 mg/kg dose as a dose that induces significant AOE expression while allowing for SDG to be detected in circulation, a pharmacokinetic study was performed to determine bioavailability and biological effects in target tissues (i.e., lung). Blood samples as well as tissues (lung, brain, liver, kidneys, spleen) were collected at 15 min, 30 min, and 1, 2, 4, 6, 8, 12 hours. SDG levels were determined as above in plasma and lung (FIGS. 41A-C). A single dose of 100 mg SDG/Kg was well absorbed and intact SDG was detectable in the circulation up to 6 hours post administration (FIG. 41A) and in flushed, blood-free lung tissues for 4 hours (FIG. 41B). […] The observed gene expression increase correlated with an increase in protein levels determined by western blotting (not shown). […] The use of SDG in human therapy is thus greatly facilitated and the toxicity risk is unlikely. Therefore a dose of 50-100 mg/Kg (1 or 2 mg SDG per day) is sufficient to induce the anticipated protective effects in target tissues and can be used for further study.
# [5] = 100 mg SDG/Kg oral, 30 minutes post-administration
compound,measurement,setting,value
"COc1cc(C[C@@H](CO[C@@H]2O[C@H](CO)[C@@H](O)[C@H](O)[C@H]2O)[C@H](CO[C@@H]2O[C@H](CO)[C@@H](O)[C@H](O)[C@H]2O)Cc2ccc(O)c(OC)c2)ccc1O [SDG, secoisolariciresinol diglucoside]",Apoptotic cells,[1],10.71%±1.45
same,γ-H2AX positive cells,[2],21.92%±2.88
same,Radiation-induced comet tail length,"[3]; SDG 50 μM pre-treatment at all time intervals, all three cell types",significantly inhibited
same,Pre-treatment time giving maximum protection against radiation-induced tail moment,"[3]; SDG 50 μM, all cell types",6 h
same,"Time SDG detectable in flushed, blood-free lung tissues",[4]; 100 mg SDG/Kg oral,4 h
same,Time intact SDG detectable in the circulation post administration,[4]; 100 mg SDG/Kg oral,up to 6 hours
same,Lung tissue concentration of SDG,[4]; [5],12.6 µM
same,Plasma concentration of SDG,[4]; [5],0.8 µM
same,Absorption,"[4]; single dose of 100 mg SDG/Kg, oral gavage",well absorbed
